In article PMC12579247, “Tanshinone IIA inhibits heat-induced growth of p53-mutant Huh-7 hepatocellular carcinoma by modulating osmotic homeostasis and glycolysis through targeting ALDH7A1” (Cell Death Discovery, 2025):

Biological target: T1, ALDH7A1 (Homo sapiens, UniProt P49419)
T1 construct: endogenous protein in heat-pretreated (44 °C) Huh-7 cells; CETSA on total protein extract, detected by Western blot
T1 sequence (P49419 27-539): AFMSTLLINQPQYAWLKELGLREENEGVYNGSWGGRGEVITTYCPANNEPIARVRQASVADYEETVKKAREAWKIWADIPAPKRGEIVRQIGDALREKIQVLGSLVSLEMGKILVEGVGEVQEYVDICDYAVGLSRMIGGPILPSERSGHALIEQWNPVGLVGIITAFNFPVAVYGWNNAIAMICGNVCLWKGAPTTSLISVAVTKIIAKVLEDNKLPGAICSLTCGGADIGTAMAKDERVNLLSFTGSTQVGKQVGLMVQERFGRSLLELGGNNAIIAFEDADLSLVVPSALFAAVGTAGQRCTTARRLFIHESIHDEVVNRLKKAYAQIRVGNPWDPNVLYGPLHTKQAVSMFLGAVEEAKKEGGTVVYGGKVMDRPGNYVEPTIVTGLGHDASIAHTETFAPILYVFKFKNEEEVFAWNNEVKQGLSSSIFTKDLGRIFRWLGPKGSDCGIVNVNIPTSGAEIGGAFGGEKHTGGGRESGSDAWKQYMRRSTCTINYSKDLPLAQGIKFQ
Experiment: CETSA, Western blot
Assay type: cell-based
Details: 0, 4, 8 µM for 24 h in cells, extract then heated at 63 °C for 5 min; heat-pretreated Huh-7 cells

## Cc1coc2c1C(=O)C(=O)c1c-2ccc2c1CCCC2(C)C [Tan IIA]
  CETSA, Western blot: CETSA results showed that the binding of Tan IIA to ALDH7A1 was concentration-dependent
